{"source": "ChEMBL document CHEMBL1143419", "about": "“Safety and pharmacokinetics of Bevirimat (PA-457), a novel inhibitor of human immunodeficiency virus maturation, in healthy volunteers” (Antimicrob Agents Chemother, 2007)", "key": {"Homo sapiens [1]": {"test_system": "Homo sapiens", "assay": "Dose normalized AUC (0 to infinity) in healthy human plasma at 250 mg, po administered as single dose", "format": "ADME, organism-based", "parameters": "dose 250 mg, route oral, time infinity", "conditions": "in vivo"}, "[2]": {"assay": "Half life in healthy human plasma at 100 mg, po administered as single dose", "format": "ADME, organism-based"}, "[3]": {"assay": "Drug concentration in healthy human urine assessed as unconjugated drug level at 250 mg, po administered as single dose after 48 hrs", "format": "ADME, organism-based", "conditions": "read-out: Drug uptake"}, "[4]": {"assay": "Tmax in healthy human plasma at 50 mg, po administered as single dose", "format": "ADME, organism-based"}, "[5]": {"assay": "AUC (0 to infinity) in healthy human plasma at 25 mg, po administered as single dose", "format": "ADME, organism-based", "parameters": "dose 25 mg, time infinity, route oral"}, "[6]": {"assay": "Half life in healthy human plasma at 250 mg, po administered as single dose", "format": "ADME, organism-based"}, "Homo sapiens [7]": {"test_system": "Homo sapiens", "assay": "Toxicity in healthy human assessed as adverse event occurrence at 100 mg, po administered as single dose", "format": "organism-based", "conditions": "in vivo"}, "[8]": {"assay": "Apparent oral clearance in healthy human plasma at 25 mg, po administered as single dose", "format": "ADME, organism-based"}, "Homo sapiens [9]": {"test_system": "Homo sapiens", "assay": "Toxicity in healthy human assessed as adverse event occurrence at 50 mg, po administered as single dose", "format": "organism-based", "conditions": "in vivo"}, "Homo sapiens [10]": {"test_system": "Homo sapiens", "assay": "Toxicity in healthy human assessed as adverse event occurrence at 25 mg, po administered as single dose", "format": "organism-based", "conditions": "in vivo"}, "[11]": {"assay": "Tmax in healthy human plasma at 250 mg, po administered as single dose", "format": "ADME, organism-based"}, "Homo sapiens [12]": {"test_system": "Homo sapiens", "assay": "Toxicity in healthy human assessed as adverse event occurrence at 250 mg, po administered as single dose", "format": "organism-based", "conditions": "in vivo"}, "Homo sapiens [13]": {"test_system": "Homo sapiens", "assay": "Cmax in healthy human plasma after 250 mg oral dose, normalised for 70 kg subject", "format": "ADME, organism-based", "parameters": "dose 250 mg, route oral", "conditions": "in vivo"}, "[14]": {"assay": "AUC (0 to infinity) in healthy human plasma at 250 mg, po administered as single dose", "format": "ADME, organism-based", "parameters": "dose 250 mg, time infinity, route oral"}, "[15]": {"assay": "Half life in healthy human plasma at 50 mg, po administered as single dose", "format": "ADME, organism-based"}, "Homo sapiens [16]": {"test_system": "Homo sapiens", "assay": "Cmax in healthy human plasma after 25 mg oral dose, normalised for 70 kg subject", "format": "ADME, organism-based", "parameters": "dose 25 mg, route oral", "conditions": "in vivo"}, "Homo sapiens [17]": {"test_system": "Homo sapiens", "assay": "Cmax in heathy human plasma after 100 mg oral dose, normalised for 70 kg subject", "format": "ADME, organism-based", "parameters": "dose 100 mg, route oral", "conditions": "in vivo"}, "[18]": {"assay": "Half life in healthy human plasma at 25 mg, po administered as single dose", "format": "ADME, organism-based"}, "[19]": {"assay": "Tmax in healthy human plasma at 100 mg, po administered as single dose", "format": "ADME, organism-based"}, "Homo sapiens [20]": {"test_system": "Homo sapiens", "assay": "Dose normalized AUC (0 to infinity) in healthy human plasma at 50 mg, po administered as single dose", "format": "ADME, organism-based", "parameters": "dose 50 mg, time infinity, route oral", "conditions": "in vivo"}, "[21]": {"assay": "Apparent oral clearance in healthy human plasma at 100 mg, po administered as single dose", "format": "ADME, organism-based"}, "[22]": {"assay": "Cmax in healthy human plasma at 25 mg, po administered as single dose", "format": "ADME, organism-based", "parameters": "dose 25 mg, route oral"}, "Homo sapiens [23]": {"test_system": "Homo sapiens", "assay": "Dose normalized AUC (0 to infinity) in healthy human plasma at 25 mg, po administered as single dose", "format": "ADME, organism-based", "parameters": "dose 25 mg, time infinity, route oral", "conditions": "in vivo"}, "[24]": {"assay": "Tmax in healthy human plasma at 25 mg, po administered as single dose", "format": "ADME, organism-based"}, "[25]": {"assay": "Cmax in healthy human plasma at 50 mg, po administered as single dose", "format": "ADME, organism-based", "parameters": "dose 50 mg, route oral"}, "[26]": {"assay": "Apparent oral clearance in healthy human plasma at 50 mg, po administered as single dose", "format": "ADME, organism-based"}, "[27]": {"assay": "Drug concentration in healthy human urine assessed as conjugated drug level at 250 mg, po administered as single dose after 48 hrs", "format": "ADME, organism-based", "conditions": "in vivo"}, "[28]": {"assay": "Apparent oral clearance in healthy human plasma at 250 mg, po administered as single dose", "format": "ADME, organism-based"}, "Homo sapiens [29]": {"test_system": "Homo sapiens", "assay": "Dose normalized AUC (0 to infinity) in healthy human plasma at 100 mg, po administered as single dose", "format": "ADME, organism-based", "parameters": "dose 100 mg, time infinity, route oral", "conditions": "in vivo"}, "Homo sapiens [30]": {"test_system": "Homo sapiens", "assay": "Cmax in healthy human plasma after 50 mg oral dose, normalised for 70 kg subject", "format": "ADME, organism-based", "parameters": "dose 50 mg, route oral", "conditions": "in vivo"}, "[31]": {"assay": "AUC (0 to infinity) in healthy human plasma at 100 mg, po administered as single dose", "format": "ADME, organism-based", "parameters": "dose 100 mg, route oral, time infinity"}, "[32]": {"assay": "AUC (0 to infinity) in healthy human plasma at 50 mg, po administered as single dose", "format": "ADME, organism-based", "parameters": "dose 50 mg, route oral, time infinity"}, "[33]": {"assay": "Cmax in healthy human plasma at 250 mg, po administered as single dose", "format": "ADME, organism-based", "parameters": "dose 250 mg, route oral"}}}
{"smiles": "C=C(C)[C@@H]1CC[C@]2(C(=O)O)CC[C@]3(C)[C@H](CC[C@@H]4[C@@]5(C)CC[C@H](OC(=O)CC(C)(C)C(=O)O)C(C)(C)[C@@H]5CC[C@]43C)[C@@H]12", "note": "[BEVIRIMAT]", "values": [{"measurement": "AUC", "setting": "Homo sapiens [1]", "result": 2221.8, "unit": "µg·h/mL"}, {"measurement": "half-life", "setting": "[2]", "result": 75.4, "unit": "h"}, {"measurement": "dose excreted at 48 h", "setting": "[3]", "result": 0.82, "unit": "%"}, {"measurement": "Tmax", "setting": "[4]", "result": 1, "unit": "h"}, {"measurement": "AUC(0-inf)", "setting": "[5]", "result": 151, "unit": "µg·h/mL"}, {"measurement": "half-life", "setting": "[6]", "result": 69, "unit": "h"}, {"measurement": "Activity", "setting": "Homo sapiens [7]", "result": 50, "unit": "%"}, {"measurement": "CL/F", "setting": "[8]", "result": 2.89, "unit": "mL/h/kg"}, {"measurement": "Activity", "setting": "Homo sapiens [9]", "result": 16.7, "unit": "%"}, {"measurement": "Activity", "setting": "Homo sapiens [10]", "result": 16.7, "unit": "%"}, {"measurement": "Tmax", "setting": "[11]", "result": 2.5, "unit": "h"}, {"measurement": "Activity", "setting": "Homo sapiens [12]", "result": 33.3, "unit": "%"}, {"measurement": "Cmax", "setting": "Homo sapiens [13]", "result": 31100, "unit": "ng/mL"}, {"measurement": "AUC(0-inf)", "setting": "[14]", "result": 1800, "unit": "µg·h/mL"}, {"measurement": "half-life", "setting": "[15]", "result": 56.7, "unit": "h"}, {"measurement": "Cmax", "setting": "Homo sapiens [16]", "result": 2800, "unit": "ng/mL"}, {"measurement": "Cmax", "setting": "Homo sapiens [17]", "result": 14900, "unit": "ng/mL"}, {"measurement": "half-life", "setting": "[18]", "result": 55.8, "unit": "h"}, {"measurement": "Tmax", "setting": "[19]", "result": 2, "unit": "h"}, {"measurement": "AUC", "setting": "Homo sapiens [20]", "result": 362.1, "unit": "µg·h/mL"}, {"measurement": "CL/F", "setting": "[21]", "result": 1.75, "unit": "mL/h/kg"}, {"measurement": "Cmax", "setting": "[22]", "result": 2240, "unit": "ng/mL"}, {"measurement": "AUC", "setting": "Homo sapiens [23]", "result": 170.2, "unit": "µg·h/mL"}, {"measurement": "Tmax", "setting": "[24]", "result": 1.75, "unit": "h"}, {"measurement": "Cmax", "setting": "[25]", "result": 6060, "unit": "ng/mL"}, {"measurement": "CL/F", "setting": "[26]", "result": 2.76, "unit": "mL/h/kg"}, {"measurement": "Drug uptake", "setting": "[27]", "result": 0.82, "unit": "%ID"}, {"measurement": "CL/F", "setting": "[28]", "result": 2.43, "unit": "mL/h/kg"}, {"measurement": "AUC", "setting": "Homo sapiens [29]", "result": 1014, "unit": "µg·h/mL"}, {"measurement": "Cmax", "setting": "Homo sapiens [30]", "result": 7300, "unit": "ng/mL"}, {"measurement": "AUC(0-inf)", "setting": "[31]", "result": 983, "unit": "µg·h/mL"}, {"measurement": "AUC(0-inf)", "setting": "[32]", "result": 312, "unit": "µg·h/mL"}, {"measurement": "Cmax", "setting": "[33]", "result": 30000, "unit": "ng/mL"}]}
